# Results published in patent publication US9078868B2, “Therapeutic agent for accelerating recovery of animal under medical treatment” (UNIVERSITY OF MIYAZAKI, priority 2010, dated 2015).
# No end group written: not given here. *: point of attachment. Octanoyl = CCCCCCCC(=O)*
# Test system: hospitalized animals (canines and felines) with poor physical conditions
# Experiment: Example 3-1: repeated dose of ghrelin (analyzed together with single dose animals), compiled by disease group
# Format: in vivo
# Set-up: key to Degree of anger or anxiety score after administration: 1 = calm/accustomed to staff … 5 = too violent to touch, bites
# Conditions: for BUN: animals improved/animals evaluated / Body temperature: animals improved/animals evaluated / CPK: animals improved/animals evaluated / CRE: animals improved/animals evaluated / Degree of anger: animals improved/animals evaluated / GOT: animals improved/animals evaluated / GPT: animals improved/animals evaluated / PLT: animals improved/animals evaluated / Vigor: animals improved/animals evaluated / WBC: animals improved/animals evaluated / Respiratory rate: animals improved/animals evaluated / CRP: animals improved/animals evaluated: single or repeated dose; for Respiratory rate after administration: before administration 100/min; for GPT value after administration: before administration 1000 IU/L; for Activity (vigor) score after administration / Degree of anger or anxiety score after administration: example; for Activity (vigor) score after administration: scale 1-7; for Degree of anger or anxiety score after administration: before administration a score of 5, scale 1-5
# Procedure: In these Examples, a canine-derived ghrelin (a peptide compound in which a side chain hydroxyl group of the serine residue at the 3rd position from the amino terminus is acylated with an n-octanoyl group in SEQ ID NO: 1) was used as ghrelin. The canine-derived ghrelin was chemically synthesized and then lyophilized, and a canine-derived ghrelin for administration containing 0.1, 0.3, 0.5, or 1 mg per vial of a canine-derived ghrelin was prepared.
# To administer ghrelin to animals, the canine-derived ghrelin was dissolved to a concentration of 1 mg/2 mL in physiological saline and intravenously, subcutaneously, or intramuscularly injected after the dose was adjusted depending on the body weight.
# The evaluation parameters used were activity (vigor), body temperature, hematology parameters (blood cell test values), serum biochemistry parameters (biochemical test values), the degree of anger or anxiety, and respiratory rate. […] The degree of anger or anxiety of an animal observed visually by an observer were also evaluated using the following criteria: 1. calm and accustomed to a health care professional, 2. able to be touched by but unaccustomed to a health care professional and restless, 3. wandering around or hiding in the kennel with anxiety, 4. able to be barely touched, and 5. too violent to be touched by a health care professional and tends to bite.
# A canine-derived ghrelin was repeatedly administered intravenously or subcutaneously to each of the animals with poor physical conditions. The dose of intravenous administration was approximately 5 μg/kg or 10 μg/kg, and the dose of subcutaneous administration was approximately 100 μg/kg. The mean number of doses in repeated administration was approximately four times, and the maximum number of doses was 11 times. The administration period was one to six days.
# Evaluation parameters evaluated before and after administration of ghrelin were appetite, quantity of meal, biochemical test values (GOT, GPT, BUN, CRE, CPK, CRP), blood cell test values (white blood cell [WBC], platelet [PLT]), body temperature, activity (vigor), skin, coat, wellness, the degree of anger or anxiety, respiratory rate, and others. These parameters were analyzed together with the results of the animals receiving a single dose (Examples 1 and 2). The analysis results were compiled by disease, such as renal dysfunction, tumor, fracture, and accident (see Table 3-1). Statistical analysis of values before and after administration was performed using a paired t-test.
# [1] = fracture, accident, etc., 19 animals
# [2] = fracture, accident, etc., *p < 0.05, **p < 0.01
# [3] = gastrointestinal tract disease, 7 animals
# [4] = genital disease, *p < 0.05, **p < 0.01
# [5] = infection or parasitism, 15 animals
# [6] = infection or parasitism, *p < 0.05, **p < 0.01
# [7] = inflammatory disease, 13 animals
# [8] = inflammatory disease, *p < 0.05, **p < 0.01
# [9] = renal dysfunction, *p < 0.05, **p < 0.01
substance,measurement,setting,value
"GSS (n-octanoyl) FLSPEHQKLQQRKESKKPPAKLQPR (GSS(Octanoyl)FLSPEHQKLQQRKESKKPPAKLQPR; listed as Canis familiaris) [ghrelin, chemically synthesized, lyophilized]",BUN: animals improved/animals evaluated,[1],6/7
same,Body temperature: animals improved/animals evaluated,[1],5/7
same,CPK: animals improved/animals evaluated,[1],2/2
same,CRE: animals improved/animals evaluated,[1],2/3
same,Degree of anger: animals improved/animals evaluated,[1],6/10
same,GOT: animals improved/animals evaluated,[1],6/6
same,GPT: animals improved/animals evaluated,[1],6/7
same,PLT: animals improved/animals evaluated,[1],4/8
same,Vigor: animals improved/animals evaluated,[1],13/16
same,WBC: animals improved/animals evaluated,[1],3/7
same,Respiratory rate: animals improved/animals evaluated,"fracture, accident, etc., 19 animals, #respiratory rate was stabilized in 2 of 2 animals",2/2
same,BUN: change after vs before administration (t-test),[2],Decreased*
same,Body temperature: change after vs before administration (t-test),[2],Decreased*
same,CPK: change after vs before administration (t-test),[2],Decreased*
same,Degree of anger: change after vs before administration (t-test),[2],Improved*
same,GOT: change after vs before administration (t-test),[2],Decreased*
same,GPT: change after vs before administration (t-test),[2],Decreased*
same,Vigor: change after vs before administration (t-test),[2],Improved**
same,BUN value after administration,"fractures, accidents, etc., before administration 18.3 mg/dL",10.6 mg/dL
same,Body temperature after administration,"fractures, accidents, etc., before administration 39.2° C.",38.0 °C
same,CPK value after administration,"fractures, accidents, etc., before administration 42.4 IU/L",9.4 IU/L
same,Respiratory rate after administration,"fractures, accidents, etc.",50 min⁻¹
same,GOT value after administration,"fractures, accidents, etc., before administration 996 IU/L",22 IU/L
same,GPT value after administration,"fractures, accidents, etc.",32 IU/L
same,Activity (vigor) score after administration,"fractures, accidents, etc., before administration a score of 1",3
same,Degree of anger or anxiety score after administration,"fractures, accidents, etc.",1
same,BUN: animals improved/animals evaluated,[3],1/1
same,Body temperature: animals improved/animals evaluated,[3],2/3
same,CPK: animals improved/animals evaluated,[3],2/2
same,Degree of anger: animals improved/animals evaluated,[3],0/1
same,GOT: animals improved/animals evaluated,[3],3/3
same,GPT: animals improved/animals evaluated,[3],3/3
same,PLT: animals improved/animals evaluated,[3],0/1
same,Vigor: animals improved/animals evaluated,[3],5/5
same,WBC: animals improved/animals evaluated,[3],2/2
same,Vigor: change after vs before administration (t-test),"gastrointestinal tract disease, *p < 0.05, **p < 0.01",Improved*
same,Activity (vigor) score after administration,"gastrointestinal tract diseases, before administration a score of 1",5
same,BUN: animals improved/animals evaluated,"genital disease, 29 animals",3/3
same,Body temperature: animals improved/animals evaluated,"genital disease, 29 animals",11/11
same,CRE: animals improved/animals evaluated,"genital disease, 29 animals",1/2
same,CRP: animals improved/animals evaluated,"genital disease, 29 animals",5/5
same,Degree of anger: animals improved/animals evaluated,"genital disease, 29 animals",2/8
same,GOT: animals improved/animals evaluated,"genital disease, 29 animals",3/3
same,GPT: animals improved/animals evaluated,"genital disease, 29 animals",4/4
same,PLT: animals improved/animals evaluated,"genital disease, 29 animals",4/7
same,Respiratory rate: animals improved/animals evaluated,"genital disease, 29 animals",1/1
same,Vigor: animals improved/animals evaluated,"genital disease, 29 animals",13/15
same,WBC: animals improved/animals evaluated,"genital disease, 29 animals",5/7
same,BUN: change after vs before administration (t-test),[4],Decreased*
same,Body temperature: change after vs before administration (t-test),[4],Decreased**
same,CRP: change after vs before administration (t-test),[4],Decreased*
same,Vigor: change after vs before administration (t-test),[4],Improved**
same,BUN value after administration,"genital diseases, before administration 31.5 mg/dL",7.1 mg/dL
same,CRP value after administration,"genital diseases, before administration 100 mg/dL",16 mg/dL
same,Body temperature after administration,"genital diseases, before administration 40.1° C.",38.1 °C
same,Activity (vigor) score after administration,"genital diseases, before administration a score of 1",3
same,BUN: animals improved/animals evaluated,[5],2/2
same,Body temperature: animals improved/animals evaluated,[5],3/3
same,CPK: animals improved/animals evaluated,[5],1/1
same,CRE: animals improved/animals evaluated,[5],1/1
same,Degree of anger: animals improved/animals evaluated,[5],0/2
same,GOT: animals improved/animals evaluated,[5],1/2
same,GPT: animals improved/animals evaluated,[5],3/4
same,PLT: animals improved/animals evaluated,[5],3/4
same,Respiratory rate: animals improved/animals evaluated,[5],3/3
same,Vigor: animals improved/animals evaluated,[5],10/11
same,WBC: animals improved/animals evaluated,[5],1/4
same,BUN: change after vs before administration (t-test),[6],Decreased*
same,Respiratory rate: change after vs before administration (t-test),[6],Improved*
same,Vigor: change after vs before administration (t-test),[6],Improved**
same,BUN value after administration,"infections and parasitism, before administration 23.4 mg/dL",16.4 mg/dL
same,Respiratory rate after administration,infections and parasitism,70 min⁻¹
same,Activity (vigor) score after administration,"infections and parasitism, before administration a score of 1",3
same,BUN: animals improved/animals evaluated,[7],4/4
same,Body temperature: animals improved/animals evaluated,[7],5/6
same,CPK: animals improved/animals evaluated,[7],1/1
same,CRE: animals improved/animals evaluated,[7],0/2
same,CRP: animals improved/animals evaluated,[7],1/2
same,Degree of anger: animals improved/animals evaluated,[7],2/5
same,GOT: animals improved/animals evaluated,[7],3/4
same,GPT: animals improved/animals evaluated,[7],4/4
same,PLT: animals improved/animals evaluated,[7],2/4
same,Vigor: animals improved/animals evaluated,[7],9/9
same,WBC: animals improved/animals evaluated,[7],3/4
same,Respiratory rate: animals improved/animals evaluated,"inflammatory disease, 13 animals, #respiratory rate was stabilized in 2 of 2 animals",2/2#
same,BUN: change after vs before administration (t-test),[8],Decreased*
same,Body temperature: change after vs before administration (t-test),[8],Decreased*
same,GOT: change after vs before administration (t-test),[8],Decreased*
same,GPT: change after vs before administration (t-test),[8],Decreased*
same,Vigor: change after vs before administration (t-test),[8],Improved*
same,BUN value after administration,"inflammatory diseases, before administration 18.6 mg/dL",10.7 mg/dL
same,Body temperature after administration,"inflammatory diseases, before administration 39.8° C.",38.7 °C
same,GOT value after administration,"inflammatory diseases, before administration 149 IU/L",25.0 IU/L
same,GPT value after administration,inflammatory diseases,282 IU/L
same,Activity (vigor) score after administration,"inflammatory diseases, before administration a score of 1",3
same,BUN: animals improved/animals evaluated,"renal dysfunction, 10 animals",2/3
same,Body temperature: animals improved/animals evaluated,"renal dysfunction, 10 animals",2/2
same,CRE: animals improved/animals evaluated,"renal dysfunction, 10 animals",3/3
same,Degree of anger: animals improved/animals evaluated,"renal dysfunction, 10 animals",1/3
same,GOT: animals improved/animals evaluated,"renal dysfunction, 10 animals",0/1
same,GPT: animals improved/animals evaluated,"renal dysfunction, 10 animals",1/1
same,PLT: animals improved/animals evaluated,"renal dysfunction, 10 animals",4/5
same,Respiratory rate: animals improved/animals evaluated,"renal dysfunction, 10 animals",1/1
same,Vigor: animals improved/animals evaluated,"renal dysfunction, 10 animals",5/6
same,WBC: animals improved/animals evaluated,"renal dysfunction, 10 animals",5/5
same,CRE: change after vs before administration (t-test),[9],Decreased*
same,PLT: change after vs before administration (t-test),[9],Increased**
same,Vigor: change after vs before administration (t-test),[9],Improved**
same,WBC: change after vs before administration (t-test),[9],Decreased*
same,Serum creatinine (CRE) value after administration,"renal dysfunctions, before administration 3.2 mg/dL",1.3 mg/dL
same,White blood cell (WBC) count after administration,"renal dysfunctions, before administration 324×10^2/μL",13900 µL⁻¹
same,Activity (vigor) score after administration,"renal dysfunctions, before administration a score of 2",3
same,BUN: animals improved/animals evaluated,"tumor, 14 animals",2/4
same,Body temperature: animals improved/animals evaluated,"tumor, 14 animals",6/6
same,CRE: animals improved/animals evaluated,"tumor, 14 animals",2/4
same,CRP: animals improved/animals evaluated,"tumor, 14 animals",2/2
same,Degree of anger: animals improved/animals evaluated,"tumor, 14 animals",4/6
same,GOT: animals improved/animals evaluated,"tumor, 14 animals",3/5
same,GPT: animals improved/animals evaluated,"tumor, 14 animals",4/6
same,PLT: animals improved/animals evaluated,"tumor, 14 animals",3/6
same,Respiratory rate: animals improved/animals evaluated,"tumor, 14 animals",1/1
same,Vigor: animals improved/animals evaluated,"tumor, 14 animals",7/8
same,WBC: animals improved/animals evaluated,"tumor, 14 animals",3/6
same,Body temperature: change after vs before administration (t-test),"tumor, *p < 0.05, **p < 0.01",Decreased*
same,Degree of anger: change after vs before administration (t-test),"tumor, *p < 0.05, **p < 0.01",Improved*
same,Vigor: change after vs before administration (t-test),"tumor, *p < 0.05, **p < 0.01",Improved*
same,Body temperature after administration,"tumors, before administration 39.8° C.",38.6 °C
same,Activity (vigor) score after administration,"tumors, before administration a score of 3",6
same,Degree of anger or anxiety score after administration,tumors,2
